According to publication PMC10205807, “Cross-species comparison in nonclinical pharmacokinetics of lenvatinib by a simple HPLC with ultraviolet detection” (Scientific Reports, 2023):

What was measured:
[1] = PK study in monkeys (intravenous and oral); format: in vivo, cynomolgus monkeys
Description: Male cynomolgus monkeys were supplied from Prestasi Fauna Nusantara Ltd. (Jakarta, Indonesia) and were housed at Shin Nippon Biomedical Laboratories, Ltd. The PK study was performed in a cross-over design with 7 days interval between the doses for monkeys aged 3–4 years old. Monkeys were fasted a day before the PK study and feeding was resumed 4 h postdose. Dosing solution of lenvatinib used was the same as that in the other animal PK studies. Lenvatinib was intravenously administered at the dose of 3 mg/kg via cephalic vein. In oral administration, lenvatinib at 3 mg/kg was dosed by using a nasogastric catheter, followed by giving 30 mL of water to flush the remaining dosing solution in the catheter. The number of monkeys at each dose was four. Approximately 0.5 mL of blood samples were serially collected from the femoral vein using a heparinized syringe at pre-dose, and at 5, 15 and 30 min, and 1, 2, 4, 6, 8, 12 and 24 h post-dose. Plasma sample preparation and sample storage were the same as those in the other PK studies.
(§1) PK parameters of lenvatinib were estimated by model independent analysis using a WinNonlin program (Version 4.1, Pharsight Corporation, Mountain View, CA). The time to reach the maximum plasma concentration (Tmax) and the maximum plasma concentration (Cmax) values were obtained directly from the plasma concentration data. Terminal half-life (T1/2) was calculated by ln2/ke, where ke is the slope of the regression line that fits the portion of the terminal phase (at least three time points) in the log-linear concentration–time curve. AUC0–t and AUMC0–t, the area under the concentration–time curves and the area under the first moment curve, from time = zero to time = t, respectively, were calculated using the lenvatinib concentrations in plasma by the linear/log trapezoidal method. AUC0–inf was calculated by AUC0–t + Ct/ke, and AUMC0–inf was AUMC0–t + Ct × t/ke + Ct/(ke)^2, where Ct is the last measurable concentration at time = t. The plasma concentration at time zero for the intravenous dose was extrapolated, while zero was used for the oral doses. Mean residence time (MRT), total plasma clearance (CLtot) and the volume of distribution at steady state (Vdss) were calculated by AUMC0–inf/AUC0–inf, Dose/AUC0–inf and CLtot × MRT, respectively. Oral bioavailability (F) was estimated by comparing dose-normalized AUC0–inf after oral (AUC0–inf.po) and intravenous (AUC0–inf.iv) administration as follows: F (%) = (AUC0–inf.po/AUC0–inf.iv) × 100.

[2] = Allometric PK scaling, prediction of CLint in humans; details: cross-species allometric scaling, BW 70 kg
Description: One of the typical approaches for predicting human PK from animal PK is empirical allometric scaling. As the CLtot of lenvatinib was relatively low and Vdss of lenvatinib was low to medium, thus it is theoretically preferable to correct by fp for both parameters. The CLtot divided by fp (CLtot/fp) or Vdss divided by fp (Vdss/fp) were plotted against body weight (BW) by log–log scale, and a linear regression was performed to estimate a slope and intercept for linear regression. The BW used in the calculation was 0.02, 0.2, 10, 5, and 70 kg for mice, rats, dogs, monkeys, and humans, respectively. CLtot and Vdss of lenvatinib in humans were predicted by using the regression line and the BW of humans. As no PK data of lenvatinib are available for CLtot and Vdss, which can be estimated only from intravenous administration PK study in humans, it is not possible to assess predictability of the allometric scaling for these two parameters of lenvatinib in humans. However, it is possible to predict exposure of lenvatinib after oral administration (AUCoral) in humans from the allometry scaling of hepatic intrinsic clearance (CLint). […]

[3] = phase-1 clinical trial, oral PK in humans; format: in vivo; details: human, plasma; calculated from AUCoral at 9 mg oral dose in a phase-1 study and fp 0.0172; read-out: observed CLint in humans (converted)
[4] = Cross-species PK summary (mice, rats, dogs, monkeys); format: in vivo, and monkeys; details: for bioavailability: rat, rats
Description: as §1
One of the typical approaches for predicting human PK from animal PK is empirical allometric scaling. As the CLtot of lenvatinib was relatively low and Vdss of lenvatinib was low to medium, thus it is theoretically preferable to correct by fp for both parameters. The CLtot divided by fp (CLtot/fp) or Vdss divided by fp (Vdss/fp) were plotted against body weight (BW) by log–log scale, and a linear regression was performed to estimate a slope and intercept for linear regression. The BW used in the calculation was 0.02, 0.2, 10, 5, and 70 kg for mice, rats, dogs, monkeys, and humans, respectively. CLtot and Vdss of lenvatinib in humans were predicted by using the regression line and the BW of humans. As no PK data of lenvatinib are available for CLtot and Vdss, which can be estimated only from intravenous administration PK study in humans, it is not possible to assess predictability of the allometric scaling for these two parameters of lenvatinib in humans. However, it is possible to predict exposure of lenvatinib after oral administration (AUCoral) in humans from the allometry scaling of hepatic intrinsic clearance (CLint). As lenvatinib is mainly cleared by the liver, AUCoral is estimated by Fa × Fg × Dose/(fp × CLint)[9], where Fa, Fg, fp, and CLint are absorption at the gastrointestinal (GI) tract, metabolic availability at the GI, unbound fraction in plasma, and hepatic intrinsic clearance, respectively. The CLint is thus estimated by Fa × Fg × Dose/(fp × AUCoral) in all the animal species including humans just from PK data from oral administration. The allometric scaling approach was applied for CLint in mice, rats, dogs, and monkeys. The logarithmic plot of CLint and BW was performed for a linear regression and a regression line [log (CLint) = slope × log (BW) + intercept], which was derived by logarithmic transformation of the equation CLint = a × BW^b was obtained. The CLint predicted from the allometric scaling was compared to the observed CLint after oral administration of lenvatinib at 9 mg in humans.

[5] = male, cynomolgus monkey, plasma, intravenous 3 mg/kg
[6] = male, cynomolgus monkey, plasma, oral 3 mg/kg
[7] = male, cynomolgus, cynomolgus monkey, plasma, oral 3 mg/kg

## COc1cc2nccc(Oc3ccc(NC(=O)NC4CC4)c(Cl)c3)c2cc1C(N)=O [lenvatinib, Lenvatinib]
[1]; estimated from oral PK, Fa and Fg assumed unity, BW 5 kg
  CLint (hepatic intrinsic clearance): 37,063 mL/h
[1]; [5]
  MRT: 3.32 ± 0.15 h
  half-life: 4.28 ± 0.34 h
[1]; [6]
  Cmax: 2500 ± 450 ng/mL
  MRT: 4.23 ± 0.31 h
[1]; male, cynomolgus monkey, plasma, oral 3 mg/kg, median (range)
  Tmax: 2 h
[1]; male, cynomolgus, cynomolgus monkey, plasma, intravenous 3 mg/kg
  AUC(0-inf): 12900 ± 1060 ng·h/mL
[1]; male, cynomolgus, cynomolgus monkey, plasma, intravenous 3 mg/kg, extrapolated
  C0: 5170 ± 949 ng/mL
[1]; male, cynomolgus, cynomolgus monkey, plasma, intravenous 3 mg/kg, read-out: CLtot (converted)
  clearance: 3.97 mL/min/kg
[1]; male, cynomolgus, cynomolgus monkey, plasma, intravenous 3 mg/kg, read-out: Vdss
  Vd: 0.794 ± 0.0882 L/kg
[1]; [7]
  AUC(0-inf): 10300 ± 1510 ng·h/mL
  half-life: 4.07 ± 0.29 h
[1]; male, cynomolgus, cynomolgus monkey, plasma, oral 3 mg/kg vs intravenous 3 mg/kg, read-out: F (oral bioavailability)
  bioavailability: 78.4 ± 5.4%
[2]
  CLint predicted in humans: 78.4 mL/min/kg
[3]
  CLint scaled: 75.1 mL/min/kg
[4]; calculated from CLtot (iv), blood-to-plasma partition, hepatic blood flow, and bioavailability
  availability in the intestine: > 0.7
[4]; mouse, dog, monkey, plasma, the other three species (mice, dogs, monkeys), intravenous 3 mg/kg, read-out: CLtot
  clearance: 3.97 to 6.13 mL/min/kg
[4]; mouse, dog, monkey, plasma, oral, 3 mg/kg, mice, dogs, monkeys, read-out: average bioavailability in the four species
  bioavailability: 70%
[4]; mouse, dog, monkey, plasma, po, 3 mg/kg, range over mice, dogs, and monkeys, read-out: oral bioavailability
  bioavailability: 64.4 to 78.4%
[4]; mouse, dog, monkey, plasma, po, range over mice, dogs, and monkeys, read-out: oral bioavailability
  bioavailability: 64 to 78%
